Results from patent US5597809A, “Treatment of optic neuritis” (priority 1994, dated 1997).
pEC50, pKi: −log10 of the molar value. “Also recorded” adds a separate entry of the source. Read-outs that look alike come from different tables or passages of the source.

Legend:
retinal ganglion cells [1] = test: Toxicity of other drugs to retinal ganglion cells and prevention by MK801 (FIG. 8); format: cell-based
Procedure: FIG. 8 is a bar graph showing prevention of drug toxicity by the protective agent, MK801. […] Retinal ganglion cells were incubated for 24 hours with either drug alone (5-fluorouracil (5-FU), Defororixamine, and Tamoxifenor drug +MK801, followed by measurement of cell viability.
As discussed above, other drugs are known to cause optic neuropathy (see Table 13). However, the mechanism of drug toxicity has not been defined. Experiments were carried out to determine whether NMDA antagonists prevented retinal cell damage induced by such drugs. […] The cytotoxic effect of these drugs on retinal ganglion cells was prevented by the NMDA antagonist, MK801.

retinal ganglion cells [2] = test: Attenuation of ethambutol toxicity by NMDA antagonists and a calcium channel blocker (retinal ganglion cell viability, FIG. 3); conditions: for retinal ganglion cell viability, drug alone: no ethambutol; for protection of retinal ganglion cells from ethambutol-mediated toxicity: 24 hours
[3] = test system: M. tuberculosis and M. avium isolates; test: Minimal inhibitory concentration of ethambutol by radiometric Bactec technique with and without protective agents; format: cell-based, Mycobacterium tuberculosis; Mycobacterium avium
[4] = test system: NMDA-evoked [Ca2+]i responses; test: Digital calcium imaging of NMDA-evoked [Ca2+]i responses; format: cell-based; conditions: 6 μM memantine, 200 μM NMDA
Procedure: It has now been discovered that memantine inhibits NMDA-evoked [Ca^2+ ]i responses. […] In fact, [Ca^2+ ]i rose only to levels associated with a low degree of NMDA receptor stimulation in the presence of memantine.
(§1) Neuronal intracellular free Ca^2+ concentration ([Ca^2+ ]i) was analyzed with fura-2 acetoxymethyl ester (fura 2-AM; Molecular Probes) following procedures known in the art. DiI labeled retinal ganglion cells were subsequently labeled with fura-2. Agonists (NMDA-glycine, glutamate, etc.) were applied by pneumatic pipettes (aperture […], 3-6 psi) placed 10-20 μm from the cells of interest. Data were analyzed via the Metamorph software package (Image 1).

NMDA receptor = conditions: at the resting potential; cited from earlier work
[5] = test system: all other cells of the retinal dissociations; test: Viability of the other cell types in dissociated retinal preparations exposed to ethambutol; format: cell-based, rat; conditions: increasing concentrations, 24 hours
Procedure: FIG. 1 is a line graph showing dose-dependent toxicity of ethambutol to retinal ganglion cells in vitro. Dissociated rodent retinal ganglion cells were incubated with increasing concentrations of ethambutol for 24 hours. The ability of cells to take up and cleave fluorescein diacetate was used as an index of their viability and lack of injury. […] Retinal ganglion cells (open circles) and all other cells (open squares) were scored separately for viability. […] (*) indicates statistical difference by an analysis of variance (ANOVA) followed by Scheffe multiple comparison of means, P<0.01. Values were normalized to control (n=1) and represent the means ± standard deviations of four experiments; at least 150 retinal ganglion cells scored for control values in each experiment.
Initial experiments were carried out in vitro. Freshly dissociated rat retinal preparations were exposed to increasing concentrations of ethambutol. […] Retinal cells were incubated in the presence of increasing concentrations of ethambutol, and scored for viability at 24 hours. Retinal ganglion cells were identified by the presence of DiI fluorescence.
Viability was assayed by uptake and cleavage of a second fluorescent dye, fluorescein diacetate. Ethambutol toxicity was detected only in retinal ganglion cells (FIG. 1, open circles). […]

retinal ganglion cells [6] = test: Fura-2 intracellular calcium in retinal ganglion cells (response to NMDA and ethambutol); format: cell-based, rat; conditions: for effect on intracellular calcium, ethambutol alone: 10 μM ethambutol; for greater rise in intracellular calcium with ethambutol + NMDA than with NMDA alone: 10 μM ethambutol + 100 μM NMDA
Procedure: FIG. 6 is a bar graph showing the effect of ethambutol and Zn^2+ on the cellular response to NMDA. Dissociated retinal ganglion cells were labeled with the calcium sensitive dye, fura-2. 100 μM NMDA were then applied by puffer, and the peak intracellular calcium concentration measured (peak response occurred between 10 and 70 seconds after NMDA exposure for all cells). The indicated drugs were then applied in the following concentrations: 10 μM ethambutol (Eth) or 100 μM Zn^2+. Values are means ± standard deviations. Ethambutol + NMDA led to a 20% greater rise in intracellular calcium then NMDA alone. (*) indicates statistical difference by an analysis of variance (ANOVA) followed Scheffe multiple comparison of means, P<0.01. Ethambutol, NMDA, and Zn^2+ simultaneously led to the same rise seen with NMDA alone. Ethambutol alone or in combination with Zn^2+ had no effect under these conditions.
as §1
There are several possible explanations for the finding that ethambutol toxicity to retinal ganglion cells is mediated through the NMDA receptor. A primary effect of NMDA is its known ability to increase intracellular calcium in neurons; this effect was monitored via the fluorescent dye, fura 2. Accordingly, dissociated retinal ganglion cells were labeled with fura-2. Ethambutol in concentrations from 1 nM to 1 mM was puffed onto retinal ganglion cells for periods of up to five minutes. No change was detected in 25 of 25 cells examined. As a control, 100 μM NMDA was subsequently puffed onto these cells, and in 23 of 25 cells the intracellular calcium rose to […] or higher.
Since a rise in intracellular calcium is one of the neuron's first responses to exogenously applied glutamate or NMDA, the following experiment was performed to detect changes in intracellular calcium. Dissociated retinal ganglion cells were labeled with the calcium sensitive dye, fura 2. Fura 2 allows for measurement of cytosolic calcium concentrations.
100 μM NMDA was applied to individual retinal ganglion cells, and the rise in intracellular calcium measured. The cells were then allowed to recover, and the intracellular calcium returned to baseline. 10 μM ethambutol and 100 μM NMDA were then simultaneously applied to the same cell (FIG. 6, second bar).
As a second experiment, 100 μM Zn^2+ chloride was added to the ethambutol/NMDA puffer. In the presence of 100 μM Zn^2+, 100 μM NMDA plus 10 μM ethambutol led to a rise in intracellular calcium that was indistinguishable from NMDA alone (FIG. 6, third bar). […] Accordingly, exogenous Zn^2+ reduced the NMDA/ethambutol response to the baseline NMDA response.

retinal cultures = test: Endogenous glutamate in retinal cultures by HPLC; format: cell-based, rat; conditions: overnight incubation with ethambutol
Procedure: The role of endogenous glutamate in ethambutol toxicity was evaluated. Endogenous glutamate in retinal cultures was 26±2 μM (mean ±standard deviation, n=12) (as measured by high pressure liquid chromatography).
This level of endogenous glutamate was not affected by overnight incubation with ethambutol. […] Nevertheless, experiments were carried out to determine whether endogenous glutamate was required for the expression of ethambutol toxicity in these preparations. […] The endogenous glutamate was specifically degraded by the addition of the enzyme glutamate-pyruvate transaminase (GPT) in the presence of the cosubstrate pyruvate.

retinal ganglion cells [7] = conditions: 10 μM ethambutol, within 24 hours
retinal ganglion cells [8] = test: cells; conditions: Rattus norvegicus, 24 h, read-out: half maximal effect of ethambutol toxicity to retinal ganglion cells, 24 hours incubation; viability by fluorescein diacetate
in vitro = conditions: rat, retinal ganglion cells
[9] = cited from earlier work
[10] = test system: retinal ganglion cell layer; test: In vivo toxicity of ethambutol to the retina; conditions: 100 mg/kg daily, orally, 30 days

## CC(=O)N(O)CCCCCNC(=O)CCC(=O)N(O)CCCCCNC(=O)CCC(=O)N(O)CCCCCN [Defororixamine, deferoxamine]
Retinal ganglion cells [1]
  toxicity to retinal ganglion cells: toxic to retinal ganglion cells

## NC(CCCP(=O)(O)O)C(=O)O (stereo not drawn) [APV, 2-amino-5-phosphonovalerate]
Retinal ganglion cells [2]; 100 μM drug
  retinal ganglion cell viability, drug alone: did not affect cell viability

## O=c1[nH]cc(F)c(=O)[nH]1 [5-FU, 5-fluorouracil]
Retinal ganglion cells [1]
  toxicity to retinal ganglion cells: toxic to retinal ganglion cells

## COCCOC(=O)C1=C(C)NC(C)=C(C(=O)OC(C)C)C1c1cccc([N+](=O)[O-])c1 (stereo not drawn) [nimodipine]
[3]; 100 nM agent
  effect on the concentration of ethambutol necessary to kill mycobacterial strains: had no effect
Retinal ganglion cells [2]; 100 nM drug with 10 μM ethambutol
  protection of retinal ganglion cells from ethambutol-mediated toxicity: do protect retinal ganglion cells from ethambutol induced injury; also recorded: protect retinal ganglion cells from ethambutol-mediated toxicity
Retinal ganglion cells [2]; 100 nM drug
  retinal ganglion cell viability, drug alone: did not affect cell viability

## CC/C(=C(\c1ccccc1)c1ccc(OCCN(C)C)cc1)c1ccccc1 [Tamoxifen]
Retinal ganglion cells [1]; drug alone, 24 hours
  toxicity to retinal ganglion cells: toxic to retinal ganglion cells

## C[C@]12N[C@H](Cc3ccccc31)c1ccccc12 [MK-801, dizocilpine]
Retinal ganglion cells [1]; drug + MK801, 24 hours
  effect on the cytotoxic effect of 5-FU, Defororixamine and Tamoxifen on retinal ganglion cells: prevented
[3]; 12 μM agent
  effect on the concentration of ethambutol necessary to kill mycobacterial strains: had no effect
Retinal ganglion cells [2]; 12 μM drug with 10 μM ethambutol
  protection of retinal ganglion cells from ethambutol-mediated toxicity: do protect retinal ganglion cells from ethambutol induced injury; also recorded: protect retinal ganglion cells from ethambutol-mediated toxicity
Retinal ganglion cells [2]; 12 μM drug
  retinal ganglion cell viability, drug alone: did not affect cell viability

## CC12CC3CC(C)(C1)CC(N)(C3)C2.Cl [memantine, 1-amino-3,5-dimethyladamantane hydrochloride]
[4]
  effect on excessive influx of calcium elicited by NMDA: largely prevent
[3]; 12 μM agent
  effect on the concentration of ethambutol necessary to kill mycobacterial strains: had no effect
NMDA receptor
  pKi: 5.70 to 6.00
Retinal ganglion cells [2]; 12 μM drug with 10 μM ethambutol, hydrochloride
  protection of retinal ganglion cells from ethambutol-mediated toxicity: do protect retinal ganglion cells from ethambutol induced injury; also recorded: protect retinal ganglion cells from ethambutol-mediated toxicity
Retinal ganglion cells [2]; 12 μM drug
  retinal ganglion cell viability, drug alone: did not affect cell viability

## N#Cc1cc2nc(O)c(O)nc2cc1[N+](=O)[O-] [CNQX, 6-cyano-7-nitroquinoxaline-2,3-dione]
Retinal ganglion cells [2]; 100 μM drug with 10 μM ethambutol
  protection of retinal ganglion cells from ethambutol-mediated toxicity: ineffective at preventing ethambutol-mediated cell death
Retinal ganglion cells [2]; 100 μM drug
  retinal ganglion cell viability, drug alone: did not affect cell viability

## CC[C@@H](CO)NCCN[C@@H](CC)CO [ethambutol]
[5]
  ethambutol toxicity in other cell types: No ethambutol toxicity
Retinal ganglion cells [6]; 1 nM to 1 mM puffed for up to five minutes, 25 of 25 cells
  change in intracellular calcium, ethambutol alone: No change
Retinal ganglion cells [6]
  effect on intracellular calcium, ethambutol alone: had no effect on intracellular calcium
  greater rise in intracellular calcium with ethambutol + NMDA than with NMDA alone: ≥ 20%
Retinal ganglion cells [6]; listed as Ethambutol
  greater rise in intracellular calcium with ethambutol + NMDA than with NMDA alone: 20%
  effect on intracellular calcium, ethambutol alone: had no effect
Retinal cultures
  effect on the level of endogenous glutamate: not affected
Retinal ganglion cells [7]
  retinal ganglion cells that died compared to sibling control cultures: Approximately half
Retinal ganglion cells [8]
  pEC50: 5.00
In vitro
  cytotoxicity at 24 h, 10 µM: ≥ 50%
[9]; patients taking ethambutol
  patients developing optic neuropathy: up to 15%
  patients with permanent visual loss: up to 3%
[9]; read-out: concentration in the cerebrospinal fluid, patients taking the drug orally
  concentration: 10 µM
[10]
  loss of cells in the retinal ganglion cell layer versus control: 18%
  other ocular pathology: no other ocular pathology was detected
